Data taken from ChEMBL document CHEMBL4417634, “DNA2 inhibitors for cancer treatment” (2018).
Each block holds one compound with its values, some of them ahead of it. Calls of active or inactive are those of the source. No cut-off for these calls is given here.

Legend:
HCT-116 [1] = experiment: Cytotoxicity against human HCT116 cells assessed as reduction in cell viability at 10 to 10000 nM in presence of siFEN1 by tryphan blue staining based assay; type: functional
HCT-116 [2] = experiment: Cytotoxicity against human HCT116 cells assessed as reduction in cell viability at 10 to 10000 nM in presence of siEXO1 by tryphan blue staining based assay; type: functional
Mus musculus = species: Mus musculus; experiment: Cytotoxicity against dna2 (-/-) mouse MES cells assessed as cell survival relative to control; type: functional, cell-based
MCF7 [3] = experiment: Cytotoxicity against human MCF7 cells transfected with shDNA2 assessed as cell survival relative to control; type: functional, cell-based
MCF-10A = experiment: Cytotoxicity against human MCF10A cells assessed as reduction in cell viability incubated for 7 days; type: cell-based; conditions: 168 h
MCF7 [4] = experiment: Cytotoxicity against human MCF7 cells assessed as reduction in cell viability incubated for 7 days; type: functional, cell-based; conditions: MCF7, 168 h
MDA-MB-231 = experiment: Cytotoxicity against human MDA-MB-231 cells assessed as reduction in cell viability incubated for 7 days; type: functional, cell-based; conditions: MDA-MB-231, 168 h
FHC = experiment: Cytotoxicity against human FHC cells assessed as reduction in cell viability incubated for 7 days; type: cell-based; conditions: 168 h
DLD-1 = experiment: Cytotoxicity against human DLD1 cells assessed as reduction in cell viability incubated for 7 days; type: functional, cell-based; conditions: DLD-1, 168 h
HCT-8 = experiment: Cytotoxicity against human HCT8 cells assessed as reduction in cell viability incubated for 7 days; type: functional, cell-based; conditions: HCT-8, 168 h
HT-29 = experiment: Cytotoxicity against human HT-29 cells assessed as reduction in cell viability incubated for 7 days; type: functional, cell-based; conditions: HT-29, 168 h
HCT-116 [5] = experiment: Cytotoxicity against human HCT116 cells assessed as reduction in cell viability incubated for 7 days; type: functional, cell-based; conditions: HCT-116, 168 h
WiDr = experiment: Cytotoxicity against human WiDr cells assessed as reduction in cell viability incubated for 7 days; type: functional, cell-based; conditions: 168 h
RWPE-1 = experiment: Cytotoxicity against human RWPE1 cells assessed as reduction in cell viability incubated for 7 days; type: cell-based; conditions: RWPE-1, 168 h
PC-3 = experiment: Cytotoxicity against human PC3 cells assessed as reduction in cell viability incubated for 7 days; type: functional, cell-based; conditions: PC-3, 168 h
LNCaP C4-2 = experiment: Cytotoxicity against human C4-2 cells assessed as reduction in cell viability incubated for 7 days; type: functional, cell-based; conditions: LNCaP C4-2, 168 h
CWR22R = experiment: Cytotoxicity against human 22Rv1 cells assessed as reduction in cell viability incubated for 7 days; type: functional, cell-based; conditions: 22Rv1, 168 h
[6] = Cytotoxicity against human CWRR1 cells assessed as reduction in cell viability incubated for 7 days; type: functional, cell-based; conditions: 168 h
IMR-90 = experiment: Cytotoxicity against human IMR90 cells assessed as reduction in cell viability incubated for 7 days; type: cell-based; conditions: IMR-90, 168 h
A549 = experiment: Cytotoxicity against human A549 cells assessed as reduction in cell viability incubated for 7 days; type: functional, cell-based; conditions: A549, 168 h
NCI-H460 = experiment: Cytotoxicity against human NCI-H460 cells assessed as reduction in cell viability incubated for 7 days; type: functional, cell-based; conditions: NCI-H460, 168 h
NCI-H2030 = experiment: Cytotoxicity against human NCI-H2030 cells assessed as reduction in cell viability incubated for 7 days; type: functional, cell-based; conditions: NCI-H2030, 168 h
HCT-116 [7] = experiment: Cell cycle arrest in human HCT116 cells assessed as accumulation at G1 phase at 10 uM incubated for 48 hrs by propidium iodide staining based flow cytometry (reference value: 76.2%); type: functional
HCT-116 [8] = experiment: Cell cycle arrest in human HCT116 cells assessed as accumulation at S phase at 10 uM incubated for 48 hrs by propidium iodide staining based flow cytometry (reference value: […]); type: functional
HCT-116 [9] = experiment: Cell cycle arrest in human HCT116 cells assessed as accumulation at G2/M phase at 10 uM incubated for 48 hrs by propidium iodide staining based flow cytometry (reference value: […]); type: functional
HCT-116 [10] = experiment: Cell cycle arrest in human HCT116 cells assessed as accumulation at G1 phase at 50 uM incubated for 48 hrs by propidium iodide staining based flow cytometry (reference value: 76.2%); type: functional
HCT-116 [11] = experiment: Cell cycle arrest in human HCT116 cells assessed as accumulation at S phase at 50 uM incubated for 48 hrs by propidium iodide staining based flow cytometry (reference value: […]); type: functional
HCT-116 [12] = experiment: Cell cycle arrest in human HCT116 cells assessed as accumulation at G2/M phase at 50 uM incubated for 48 hrs by propidium iodide staining based flow cytometry (reference value: […]); type: functional
[13] = molecular target: Flap endonuclease 1 (Homo sapiens) (UniProt P39748)
Chain of Flap endonuclease 1 (Homo sapiens) (P39748 whole entry): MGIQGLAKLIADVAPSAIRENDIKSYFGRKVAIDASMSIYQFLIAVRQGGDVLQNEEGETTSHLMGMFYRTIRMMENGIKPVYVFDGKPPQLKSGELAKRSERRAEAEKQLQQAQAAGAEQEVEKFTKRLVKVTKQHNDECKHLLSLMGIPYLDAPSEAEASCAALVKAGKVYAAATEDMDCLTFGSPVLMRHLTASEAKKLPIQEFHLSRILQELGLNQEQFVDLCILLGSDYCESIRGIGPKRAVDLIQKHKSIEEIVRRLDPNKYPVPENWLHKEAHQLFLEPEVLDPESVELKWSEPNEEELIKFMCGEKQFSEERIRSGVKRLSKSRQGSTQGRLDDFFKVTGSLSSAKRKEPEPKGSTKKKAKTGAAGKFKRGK

[14] = molecular target: Exonuclease 1 (Homo sapiens) (UniProt Q9UQ84)
Chain of Exonuclease 1 (Homo sapiens) (Q9UQ84 whole entry): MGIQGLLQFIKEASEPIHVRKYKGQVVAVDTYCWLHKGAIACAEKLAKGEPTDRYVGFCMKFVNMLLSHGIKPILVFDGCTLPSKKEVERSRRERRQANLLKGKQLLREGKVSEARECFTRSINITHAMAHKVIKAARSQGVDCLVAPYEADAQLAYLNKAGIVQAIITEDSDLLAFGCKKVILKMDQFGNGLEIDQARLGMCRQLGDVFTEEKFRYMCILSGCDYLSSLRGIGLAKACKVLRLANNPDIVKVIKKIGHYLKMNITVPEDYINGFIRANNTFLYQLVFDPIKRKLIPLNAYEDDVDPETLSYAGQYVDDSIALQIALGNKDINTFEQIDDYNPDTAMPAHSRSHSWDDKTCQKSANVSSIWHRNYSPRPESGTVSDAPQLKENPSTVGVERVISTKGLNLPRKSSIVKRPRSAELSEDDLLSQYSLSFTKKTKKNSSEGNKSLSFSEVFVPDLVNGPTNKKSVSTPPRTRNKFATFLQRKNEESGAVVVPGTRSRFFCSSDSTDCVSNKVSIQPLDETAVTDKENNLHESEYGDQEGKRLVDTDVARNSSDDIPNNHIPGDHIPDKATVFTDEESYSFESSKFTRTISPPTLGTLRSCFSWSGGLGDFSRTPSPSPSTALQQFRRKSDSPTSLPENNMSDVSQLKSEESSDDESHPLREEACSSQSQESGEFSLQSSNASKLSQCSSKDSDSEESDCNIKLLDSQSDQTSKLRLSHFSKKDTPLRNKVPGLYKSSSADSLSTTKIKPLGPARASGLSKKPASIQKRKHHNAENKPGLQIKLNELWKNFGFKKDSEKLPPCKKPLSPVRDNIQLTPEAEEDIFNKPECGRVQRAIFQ

HCT-116 [15] = experiment: Cytotoxicity against human HCT116 cells assessed as reduction in cell viability at 10 to 10000 nM in presence of siMRE11 by tryphan blue staining based assay; type: functional
Saccharomyces cerevisiae [16] = experiment: Potentiation of DNA damaging agent methyl methane sulfonate-induced cytotoxicity in yeast cells by dilution assay; type: functional, organism-based
Saccharomyces cerevisiae [17] = experiment: Potentiation of DNA damaging agent methyl methane sulfonate-induced cytotoxicity in yeast cells deficient in rad27 by dilution assay; type: functional, organism-based
Saccharomyces cerevisiae [18] = experiment: Potentiation of high temperature-induced cytotoxicity in yeast cells by dilution assay; type: functional, organism-based
Saccharomyces cerevisiae [19] = experiment: Potentiation of high temperature-induced cytotoxicity in yeast cells deficient in rad27 by dilution assay; type: functional, organism-based
Homo sapiens = species: Homo sapiens; experiment: Suppression of 125 nM cisplatin-induced cytotoxicity in FANCD2 (-/-) human PD20 cells assessed as increase in cell survival at 10 uM; type: functional, cell-based
U2OS [20] = experiment: Induction of single-stranded DNA accumulation in human U2OS cells assessed as reduction in P-RPA foci at 20 uM; type: functional, cell-based
U2OS [21] = experiment: Induction of single-stranded DNA accumulation in human U2OS cells assessed as reduction in P-RPA foci at 50 uM; type: functional, cell-based

inhibition [13]: inactive | inhibition [14]: inactive
Structure (SMILES): O=C(O)c1cnc2c([N+](=O)[O-])cccc2c1O
Activity (HCT-116 [1]): Active | Activity (HCT-116 [2]): Active | Activity (Mus musculus): Active | Activity (MCF7 [3]): Active | IC50 (MCF-10A): 24.4 µM | IC50 (MCF7 [4]): 7.2 µM | IC50 (MDA-MB-231): 46.8 µM | IC50 (FHC): 75.2 µM | IC50 (DLD-1): 25.1 µM | IC50 (HCT-8): 27.5 µM | IC50 (HT-29): 40.5 µM | IC50 (HCT-116 [5]): 24.2 µM | IC50 (WiDr): 52.6 µM | IC50 (RWPE-1): 78.8 µM | IC50 (PC-3): 20.9 µM | IC50 (LNCaP C4-2): 19.7 µM | IC50 (CWR22R): 11.8 µM | IC50 [6]: 15.7 µM | IC50 (IMR-90): 95.5 µM | IC50 (A549): 23.6 µM | IC50 (NCI-H460): 43.7 µM | IC50 (NCI-H2030): 17.7 µM | Activity (HCT-116 [7]): 66.9% | Activity (HCT-116 [8]): 13% | Activity (HCT-116 [9]): 12.6% | Activity (HCT-116 [10]): 54.1% | Activity (HCT-116 [11]): 17.2% | Activity (HCT-116 [12]): 28.1% | Activity (HCT-116 [15]): Active | Activity (Saccharomyces cerevisiae [16]): inactive | Activity (Saccharomyces cerevisiae [17]): Active | Activity (Saccharomyces cerevisiae [18]): inactive | Activity (Saccharomyces cerevisiae [19]): Active | Activity (Homo sapiens): Active | Activity (U2OS [20]): inactive

Structure (SMILES): CCCCNC(=O)c1c[nH]c2c([N+](=O)[O-])cccc2c1=O
Activity (Saccharomyces cerevisiae [16]): inactive | Activity (Saccharomyces cerevisiae [17]): Active | Activity (Saccharomyces cerevisiae [18]): inactive | Activity (Saccharomyces cerevisiae [19]): Active

Structure (SMILES): N=C1NC(=O)/C(=C/c2ccc(O)cc2)S1
Activity (U2OS [21]): inactive
